One compound from US8710095B2, “Drugs for prophylaxis or mitigation of taxane-induced neurotoxicity” (Bionumerik Pharmaceuticals, Inc., priority 2002, dated 2014) can be followed below.

Test [1] has as its system patients with advanced solid tumors. Description: Phase I study in the United States: 2,2′-dithiobis ethane sulfonate with paclitaxel and cisplatin, incidence of neurotoxicity. It is filed as in vivo, human. The settings on record: United States (n = 36), all doses 4.1 to 41.0 g/m^2. Here is the method:
In the Phase I study in the United States, human patients in Stage I received the following treatment regimen every 3 weeks: a single dose of paclitaxel (175 mg/m^2) administered intravenously over 3 hours, pre-cisplatin saline hydration (1000 mL 0.9% NaCl) for 2 hours, followed immediately by a single dose of 2,2′-dithiobis ethane sulfonate (4.1, 8.2, 12.3, 18.4, 27.6 and 41.0 g/m^2, depending on cohort assignment) administered intravenously over 15 or 30 minutes, a single dose of cisplatin (75 mg/m^2) administered intravenously over 1 hour and subsequently post-cisplatin saline hydration (500 cc 0.9% NaCl) for 1 hour.
A total of 36 patients (22 patients in Stage I and 14 patients in Stage II) with advanced solid tumors have been enrolled and treated in this study at two clinical sites in the United States. A total of 138 treatment courses of BNP7787 with chemotherapy were given to 36 patients giving an average number of 3.8 treatment cycles per patient. A total of 13 patients (36.1%) completed at least five treatment cycles while 5 patients (13.9%) completed at least seven treatment cycles.
The number and percentage of patients who reported neurotoxicity in the Phase I studies compared with historical control data are summarized on the next page. Severity grades were measured according to NCI-CTC standards.

The test system of the next test is cancer patients. Description: Individual patient cases (Examples 2 to 7): BNP7787 with paclitaxel and cisplatin. The format is in vivo, human. Conditions: for tumor response: with paclitaxel and cisplatin; for peripheral neurotoxicity: 3 cycles. On the procedure: A patient with adenocarcinoma of unknown origin presented with a pituitary mass and supraclavicular and mediastinal lymph nodes. They received the following treatment regimen every 3 weeks: a single dose of paclitaxel (175 mg/m^2) administered IV over 3 hours, pre-cisplatin saline hydration (500 mL 0.9% NaCl) for 1 hour, a single dose of BNP7787 (18.4 g/m^2) administered IV over 15 minutes, immediately followed by a single dose of cisplatin (75 mg/m^2) administered IV over 1 hour and subsequently post-cisplatin saline hydration (250 mL 0.9% NaCl) for 30 minutes. The patient received a total of six cycles of study treatment and experienced peripheral neuropathy (NCI-CTC Grade 2) during Cycles 4 through 6.
A patient with adenocarcinoma of gastric origin received the following treatment regimen every 3 weeks: a single dose of paclitaxel (175 mg/m^2) administered IV over 3 hours, pre-cisplatin saline hydration (500 mL 0.9% NaCl) for 1 hour, a single dose of BNP7787 (18.4 g/m^2) administered IV over 15 minutes, immediately followed by a single dose of cisplatin (75 mg/m^2) administered IV over 1 hour and subsequently post-cisplatin saline hydration (250 mL 0.9% NaCl) for 30 minutes.
A patient with adenocarcinoma of unknown origin presented with retroperitoneal and lung masses. They received the following treatment regimen every 3 weeks: a single dose of paclitaxel (175 mg/m^2) administered IV over 3 hours, pre-cisplatin saline hydration (250 mL 0.9% NaCl) for 30 minutes, a single dose of BNP7787 (18.4 g/m^2) administered IV over 15 minutes, immediately followed by a single dose of cisplatin (75 mg/m^2) administered IV over 1 hour and subsequently post-cisplatin saline hydration (250 mL 0.9% NaCl) for 30 minutes. The patient received a total of six cycles of study treatment and experienced Grade 1 numbness and tingling (peripheral neuropathy) beginning Day 2 of Cycle 1 which resolved on Day 5. The patient again experienced Grade 1 peripheral neuropathy during Cycle 4.
(§1) A patient with adenocarcinoma of the lung received the following treatment regimen every 3 weeks: a single dose of paclitaxel (175 mg/m^2) administered IV over 3 hours, pre-cisplatin saline hydration for 1 hour, immediately followed by a single dose of BNP7787 (18.4 g/m^2) administered IV over 30 minutes, a single dose of cisplatin (75 mg/m^2) administered IV over 1 hour and subsequently post-cisplatin saline hydration for 1.5 hours.
as §1, with “hours. The patient received a total of 3 cycles of study treatment and experienced Grade 1 peripheral neurotoxicity beginning on Day 6 of Cycle 3, which resolved on Day 20 of Cycle 3.” for “hours.”
A patient with large cell carcinoma of the lung received the following treatment regimen every 3 weeks: a single dose of paclitaxel (175 mg/m^2) administered IV over 3 hours, pre-cisplatin saline hydration for 1 hour, immediately followed by a single dose of BNP7787 (18.4 g/m^2) administered IV over 30 minutes, a single dose of cisplatin (75 mg/m^2) administered IV over 1 hour and subsequently post-cisplatin saline hydration for 1.5 hours. The patient received a total of 3 cycles of study treatment and experienced Grade 1 peripheral neurotoxicity beginning on Day 5 of Cycle 2.

Entries after “also recorded” stand apart in the source; their conditions may differ.

As for `O=S(=O)([O-])CCSSCCS(=O)(=O)[O-].[Na+].[Na+]` [2,2′-dithiobis ethane sulfonate], the “Incidence of neurotoxicity, Neurotoxicity Grade (NCI-CTC) 1” value in test [1] is on record as 8 (22.2) Number (%) of Patients. The “Incidence of neurotoxicity, Neurotoxicity Grade (NCI-CTC) 2” value in test [1] was 8 (22.2) Number (%) of Patients. Besides, in test [1], the “Incidence of neurotoxicity, Neurotoxicity Grade (NCI-CTC) 3” value is 0 (0.0) Number (%) of Patients. Further, the “Incidence of neurotoxicity, Neurotoxicity Grade (NCI-CTC) 4” value in test [1] is reported as 0 (0.0) Number (%) of Patients. For the same compound, the “Incidence of neurotoxicity, Neurotoxicity Grade (NCI-CTC) ≧2” value in test [1] is reported as 8 (22.2) Number (%) of Patients. Besides, in test [1], the “Incidence of neurotoxicity, Overall (all grades)” value is reported as 16 (44.0) Number (%) of Patients. For the same compound, the tumor response result with cancer patients (Example 2: after Cycle 2, confirmed after Cycles 4 and 6) is given as “complete response”; in the test with cancer patients (Example 3: stable Cycles 2 through 4, progression following Cycle 5, listed as BNP7787) it was “stable disease; also recorded: progressive disease”; in the test with cancer patients (Example 4: partial after Cycle 2, complete after Cycle 6, listed as BNP7787), “partial response; also recorded: complete response”; in the test with cancer patients (Example 5: after Cycles 2 and 3), “partial response”; in the test on cancer patients (Example 6: after Cycles 2 and 3), “partial response”; in the test with cancer patients (Example 7), “stable disease”. Moreover, in the test on cancer patients (Example 2: person, adenocarcinoma of unknown origin, 18.4 g/m^2, six cycles, during Cycles 4 through 6), the “peripheral neuropathy (NCI-CTC)” value is reported as “Grade 2”. Moreover, the peripheral neuropathy entry in the test on cancer patients (Example 3: person, adenocarcinoma of gastric origin, 18.4 g/m^2, five cycles) was “no peripheral neuropathy”. Moreover, in the test with cancer patients (Example 4: person, adenocarcinoma of unknown origin, 18.4 g/m^2, six cycles, Cycle 1 Day 2 to 5 and Cycle 4), the “peripheral neuropathy (numbness and tingling)” value is on record as “Grade 1”. The peripheral neurotoxicity result in the test with cancer patients (Example 5: person, adenocarcinoma of the lung, 18.4 g/m^2) is “no peripheral neurotoxicity”; in the test on cancer patients (Example 6: person, adenocarcinoma of the lung, 18.4 g/m^2, Day 6 to Day 20 of Cycle 3), “Grade 1”; in the test with cancer patients (Example 7: person, large cell carcinoma of the lung, 18.4 g/m^2, beginning Day 5 of Cycle 2) it was “Grade 1”.
